Data published in patent US9102671B2, “Compounds and compositions as TRK inhibitors” (Novartis AG, priority 2011, dated 2015).

Legend:
[1] = biological target: T1, Ba/F3 cells co-expressing full length rTrkA and mNGF (Rattus norvegicus, UniProt P35739); test: Ba/F3 cell proliferation, BaF3/TRKA-NGF; format: cell-based; settings: inhibition of proliferation, 48 hours, Bright-Glo luminescence
T1 construct: co-expressing full length rTrkA and mNGF; expressed in transfected cells; host or cells: Ba/F3 murine hematopoietic progenitor cells
T1 sequence (P35739 33-799): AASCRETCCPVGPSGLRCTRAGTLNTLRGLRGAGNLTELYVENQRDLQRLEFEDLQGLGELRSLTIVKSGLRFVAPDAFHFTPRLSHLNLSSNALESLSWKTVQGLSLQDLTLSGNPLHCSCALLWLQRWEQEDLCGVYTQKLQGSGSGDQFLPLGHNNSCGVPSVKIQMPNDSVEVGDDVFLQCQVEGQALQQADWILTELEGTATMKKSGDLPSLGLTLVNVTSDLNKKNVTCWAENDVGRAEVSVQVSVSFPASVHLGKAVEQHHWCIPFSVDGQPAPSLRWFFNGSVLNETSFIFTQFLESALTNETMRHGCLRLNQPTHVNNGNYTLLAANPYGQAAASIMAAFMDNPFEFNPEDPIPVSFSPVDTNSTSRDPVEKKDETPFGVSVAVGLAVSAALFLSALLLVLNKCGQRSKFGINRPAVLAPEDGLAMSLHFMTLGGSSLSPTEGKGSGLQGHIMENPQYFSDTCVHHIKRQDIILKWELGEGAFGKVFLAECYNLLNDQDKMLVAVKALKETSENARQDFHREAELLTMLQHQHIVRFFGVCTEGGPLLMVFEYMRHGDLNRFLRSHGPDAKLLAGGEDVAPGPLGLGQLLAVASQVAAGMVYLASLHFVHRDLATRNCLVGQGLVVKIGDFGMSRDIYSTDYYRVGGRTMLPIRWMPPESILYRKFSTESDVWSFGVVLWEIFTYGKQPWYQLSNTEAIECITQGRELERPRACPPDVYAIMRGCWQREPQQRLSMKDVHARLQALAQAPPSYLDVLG
T1 sequence (P01139 122-241 partner): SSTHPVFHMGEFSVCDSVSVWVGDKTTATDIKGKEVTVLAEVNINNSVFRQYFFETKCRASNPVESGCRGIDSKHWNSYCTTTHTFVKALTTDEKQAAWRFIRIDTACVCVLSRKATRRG

[2] = system: parental (untransformed) Ba/F3 cells; test: Ba/F3 cell proliferation, BAF3/WT (parental, IL3); format: cell-based, murine; settings: Mus musculus, inhibition of proliferation of parental cells with IL3, 48 hours, Bright-Glo luminescence
Method: (§1) Test compounds were dissolved in DMSO (10 mM) and transferred into 1.4 mL flat bottom or V-shaped Matrix tubes carrying a unique 2D matrix chip by individual compound hubs. The numbers of these chips were distinctively linked to the individual compound identification numbers. The stock solutions were stored at −20° C. if not used immediately. For the test procedure the vials were defrosted and identified by a scanner whereby a working sheet is generated that guides the subsequent working steps.
(§2) Compound dilutions were made in 384 well plates. This format enabled the assay of maximally 28 individual test compounds at 11 concentrations (single points) including 2 reference compounds. The dilution protocol included the production of pre-dilution plates, master plates and assay plates: • Compound plates: 30 μL of individual compound (10 mM) DMSO solution including reference compound were transferred into columns 1 and 13 of a 384 well plate. 20 μL of DMSO were added to the rest of the wells and the compounds were serially diluted (1:3) by transferring 10 μL from a well in column 1 or 13 to the next well in column 2 or 14 respectively and successively with the help of a Minitrack robot. • Assay plates: Identical assay plates were then prepared by adding 50 nL each of compound dilutions of the compound plates into 384-well “assay plates”. In the following the compounds were mixed with 50 μL of assays components (cells or enzyme) and tested for their inhibitory activity.
Compounds were tested for their ability to inhibit the proliferation of wt Ba/F3 cells and Ba/F3 cells transformed with constitutively expressed luciferase reporter and BCR-ABL or Tel-FMS or other Tel fusion kinases (EGFR, JAK2, ALK, BMX, FGFR3, FGFR4, FGR2, FLT1, FLT3, IGF1R, INSR, KDR, KIT, LCK, LYN, MEK, MET, PDGFRα, PDGFRβ, RET, RON, ROS, SRC, SYK, TIE and TYRO) or BRafV600E. Parental Ba/F3 cells were maintained in media containing recombinant mouse IL3 and the kinase transformed Ba/F3 cells were maintained in media without IL-3. 7.5 nl of compounds were spotted to each well of 1536-well assay plates by Liquid handling System Echo 555 (Labcyte). 700 cells were then plated into each well of the assay plates in 7 uL culture media per well and compounds were tested at 0.17 nM to 10 uM in 3-fold serial dilutions. The cells were then incubated for 48 hours at 37° C. 3 uL of Bright-Glo® (Promega) was added to each well and the plates were read using ViewLux (PerkinElmer).
The cell line used is the luciferase expressing Ba/F3 murine hematopoietic progenitor cell line transformed with human Tel-TrkA, Tel-TrkB or Tel-TrkC cDNAs (Ba/F3 EN A/B/C). These cells maintained in RPMI/10% fetal bovine serum (RPMI/FCS) supplemented with penicillin 50 mg/mL, streptomycin 50 mg/mL and L-glutamine 200 mM. Untransformed Ba/F3 cells were similarly maintained with the addition 5 ng/ml of murine recombinant IL3. 50 μl of a Ba/F3 or Ba/F3 EN A/B/C cell suspension were plated in Greiner 384 well microplates (white)) at a density of 2000 cells per well. 50 nl of serially diluted test compound (10-0.0001 mM in DMSO solution) is added to each well. The cells were incubated for 48 hours at 37° C., 5% CO2. 25 μl of Bright Glo® (Promega) luciferase substrate is added to each well. The emited luminiscence is quantified using ViewLux (PerkinElmer). IC50 values were calculated by linear regression analysis of the percentage inhibition of each compound at 11 concentrations. […]

[3] = biological target: T2, Ba/F3 cells transformed with human Tel-TrkA (Homo sapiens, UniProt P04629); test: Ba/F3 cell proliferation, Ba/F3 Tel-TrkA; format: cell-based; settings: inhibition of proliferation, 48 hours, Bright-Glo luminescence; read-out: Ba/F3Tel-TrkA
T2 construct: expressed in transfected cells; host or cells: luciferase expressing Ba/F3 murine hematopoietic progenitor cell line; the other entry of the earlier key: ETV6 (P41212, Transcription factor ETV6)
T2 sequence (P04629 510-796 limits assumed): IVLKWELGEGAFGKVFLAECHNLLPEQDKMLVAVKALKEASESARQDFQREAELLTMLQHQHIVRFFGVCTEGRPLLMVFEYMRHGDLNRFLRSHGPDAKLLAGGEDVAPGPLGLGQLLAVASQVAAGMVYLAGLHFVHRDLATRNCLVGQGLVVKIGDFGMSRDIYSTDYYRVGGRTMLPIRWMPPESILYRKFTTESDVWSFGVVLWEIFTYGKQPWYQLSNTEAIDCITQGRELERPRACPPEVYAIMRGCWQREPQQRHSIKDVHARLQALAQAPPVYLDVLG
Method: as §1, §2
The cell line used is the luciferase expressing Ba/F3 murine hematopoietic progenitor cell line transformed with human Tel-TrkA, Tel-TrkB or Tel-TrkC cDNAs (Ba/F3 EN A/B/C). These cells maintained in RPMI/10% fetal bovine serum (RPMI/FCS) supplemented with penicillin 50 mg/mL, streptomycin 50 mg/mL and L-glutamine 200 mM. Untransformed Ba/F3 cells were similarly maintained with the addition 5 ng/ml of murine recombinant IL3. 50 μl of a Ba/F3 or Ba/F3 EN A/B/C cell suspension were plated in Greiner 384 well microplates (white)) at a density of 2000 cells per well. 50 nl of serially diluted test compound (10-0.0001 mM in DMSO solution) is added to each well. The cells were incubated for 48 hours at 37° C., 5% CO2. 25 μl of Bright Glo® (Promega) luciferase substrate is added to each well. The emited luminiscence is quantified using ViewLux (PerkinElmer). IC50 values were calculated by linear regression analysis of the percentage inhibition of each compound at 11 concentrations.
In certain examples compounds of Formula (I) have IC50 values from 0.1 nM 1 μM. In other examples, compounds of Formula (I) have IC50 values from 0.0001 μM to 0.8 μM. In other examples, compounds of Formula (I) have IC50 values from 0.0001 μM to 0.6 μM. In other examples, compounds of Formula (I) have IC50 values from 0.0001 μM to 0.4 μM. In other examples, compounds of Formula (I) have IC50 values from 0.0001 μM to 0.2 μM. In other examples, compounds of Formula (I) have IC50 values from 0.0001 μM to 0.1 μM. In other examples, compounds of Formula (I) have IC50 values from 0.0001 μM to 0.08 μM. In other examples, compounds of Formula (I) have IC50 values from 0.0001 μM to 0.06 μM. In other examples, compounds of Formula (I) have IC50 values from 0.0001 μM to 0.04 μM. In other examples, compounds of Formula (I) have IC50 values from 0.0001 μM to 0.02 μM. In other examples, compounds of Formula (I) have IC50 values from 0.0001 μM to 0.01 μM. In other examples, compounds of Formula (I) have IC50 values from 0.01 μM to 1 μM.

SMILES	IC50 [1]	IC50 [3]	IC50 [2]
CCOC(=O)c1cnn2ccc(N3C[C@@H](F)C[C@@H]3c3cccc(F)c3)cc12 [Example X-1, ethyl 5-((2R,4S)-4-fluoro-2-(3-fluorophenyl)pyrrolidin-1-yl)pyrazolo[1,5-a]pyridine-3-carboxylate]	1 nM		4100 nM
CCOC(=O)c1cnn2ccc(N3CC(F)(F)C[C@@H]3c3cccc(F)c3)cc12 [Example X-2, (R)-ethyl 5-(4,4-difluoro-2-(3-fluorophenyl)pyrrolidin-1-yl)pyrazolo[1,5-a]pyridine-3-carboxylate]	3 nM	3 nM	> 10000 nM
O=C(O)c1cnn2ccc(N3C[C@@H](F)C[C@@H]3c3cccc(F)c3)cc12 [Example X-3, 5-((2R,4S)-4-fluoro-2-(3-fluorophenyl)pyrrolidin-1-yl)pyrazolo[1,5-a]pyridine-3-carboxylic acid]	110 nM	147 nM	> 10000 nM
NC(=O)c1cnn2ccc(N3CC(F)(F)C[C@@H]3c3cccc(F)c3)cc12 [Example X-6, (R)-5-(4,4-difluoro-2-(3-fluorophenyl)pyrrolidin-1-yl)pyrazolo[1,5-a]pyridine-3-carboxamide]	16 nM	24 nM	> 10000 nM
CCOC(=O)c1cnn2ccc(N3C[C@@H](F)C[C@@H]3c3cc(F)cc(C#N)c3)cc12 [Example X-7, ethyl 5-((2R,4S)-2-(3-cyano-5-fluorophenyl)-4-fluoropyrrolidin-1-yl)pyrazolo[1,5-a]pyridine-3-carboxylate]	2 nM	1 nM	4490 nM
CCOC(=O)c1cnn2ccc(N3CC(F)(F)C[C@@H]3c3cc(F)cc(C#N)c3)cc12 [Example X-8, (R)-ethyl 5-(2-(3-cyano-5-fluorophenyl)-4,4-difluoropyrrolidin-1-yl)pyrazolo[1,5-a]pyridine-3-carboxylate]	19 nM	17 nM	> 10000 nM
NC(=O)c1cnn2ccc(N3CCCCC3c3cccc(F)c3)cc12 (centres unmarked) [Example X-12, 5-[2-(3-fluorophenyl)piperidin-1-yl]pyrazolo[1,5-a]pyridine-3-carboxamide]	97 nM	225 nM	> 10000 nM
CCNC(=O)c1cnn2ccc(N3C[C@@H](F)C[C@@H]3c3cccc(F)c3)cc12 [Example X-14, N-ethyl-5-[(2R,4S)-4-fluoro-2-(3-fluorophenyl)pyrrolidin-1-yl]pyrazolo[1,5-a]pyridine-3-carboxamide]	8 nM	6 nM	> 10000 nM
CN(C)C(=O)c1cnn2ccc(N3C[C@@H](F)C[C@@H]3c3cccc(F)c3)cc12 [Example X-15, 5-[(2R,4S)-4-fluoro-2-(3-fluorophenyl)pyrrolidin-1-yl]-N,N-dimethylpyrazolo[1,5-a]pyridine-3-carboxamide]	43 nM	50 nM	> 10000 nM
CC(C)(C)NC(=O)c1cnn2ccc(N3C[C@@H](F)C[C@@H]3c3cccc(F)c3)cc12 [Example X-16, N-tert-butyl-5-[(2R,4S)-4-fluoro-2-(3-fluorophenyl)pyrrolidin-1-yl]pyrazolo[1,5-a]pyridine-3-carboxamide]	6 nM	5 nM	> 10000 nM
O=C(NCCO)c1cnn2ccc(N3C[C@@H](F)C[C@@H]3c3cccc(F)c3)cc12 [Example X-17, 5-[(2R,4S)-4-fluoro-2-(3-fluorophenyl)pyrrolidin-1-yl]-N-(2-hydroxyethyl)pyrazolo[1,5-a]pyridine-3-carboxamide]	14 nM	9 nM	> 10000 nM

More lines, in order of falling IC50 [1], values ahead:

IC50 [1]	IC50 [3]	SMILES	IC50 [2]
666 nM	1680 nM	O=C(O)c1cnn2ccc(N3CC(F)(F)C[C@@H]3c3cccc(F)c3)cc12 [Example X-4, (R)-5-(4,4-difluoro-2-(3-fluorophenyl)pyrrolidin-1-yl)pyrazolo[1,5-a]pyridine-3-carboxylic acid]	> 10000 nM
341 nM	712 nM	NC(=O)c1cnn2ccc(N3CCCC3c3ccccc3C(F)(F)F)cc12 (centres unmarked) [Example X-13, 5-{2-[2-(trifluoromethyl)phenyl]pyrrolidin-1-yl}pyrazolo[1,5-a]pyridine-3-carboxamide]	> 10000 nM
48 nM	37 nM	NC(=O)c1cc(F)cc([C@H]2CC(F)(F)CN2c2ccn3ncc(C(N)=O)c3c2)c1 [Example X-9, (R)-5-(2-(3-carbamoyl-5-fluorophenyl)-4,4-difluoropyrrolidin-1-yl)pyrazolo[1,5-a]pyridine-3-carboxamide]	> 10000 nM
24 nM	21 nM	N#Cc1cc(F)cc([C@H]2CC(F)(F)CN2c2ccn3ncc(C(N)=O)c3c2)c1 [Example X-11, (R)-5-(2-(3-cyano-5-fluorophenyl)-4,4-difluoropyrrolidin-1-yl)pyrazolo[1,5-a]pyridine-3-carboxamide]	> 10000 nM
7 nM	6 nM	NC(=O)c1cnn2ccc(N3C[C@@H](F)C[C@@H]3c3cccc(F)c3)cc12 [Example X-5, 5-((2R,4S)-4-fluoro-2-(3-fluorophenyl)pyrrolidin-1-yl)pyrazolo[1,5-a]pyridine-3-carboxamide]	> 10000 nM
7 nM	7 nM	CC(C)NC(=O)c1ccc(F)cc1C1CC(F)(F)CN1c1ccn2ncc(C(N)=O)c2c1 (centres unmarked) [Example X-18, 5-(4,4-difluoro-2-{5-fluoro-2-[(propan-2-yl)carbamoyl]phenyl}pyrrolidin-1-yl)pyrazolo[1,5-a]pyridine-3-carboxamide]	> 10000 nM
